Measured values reported in paper PMC10385824, “Antiproliferative and Tubulin-Destabilising Effects of 3-(Prop-1-en-2-yl)azetidin-2-Ones and Related Compounds in MCF-7 and MDA-MB-231 Breast Cancer Cells” (Pharmaceuticals, 2023).
Where two headings read alike, the source gives them in different places.

How the values were obtained:
MCF-7 = assay: cells; conditions: Homo sapiens, MCF7, 48 h
UO-31 = assay: NCI-60 SRB screen, renal cancer; type: cell-based, human; conditions: Homo sapiens
NCI-H552 = assay: NCI-60 SRB screen, non-small cell lung cancer; type: cell-based, human; conditions: Homo sapiens, 48 h
MDA-MB-468 = assay: NCI-60 SRB screen, breast cancer; type: cell-based, human; conditions: Homo sapiens
DU-145 = assay: NCI-60 SRB screen, prostate cancer; type: cell-based, human; conditions: Homo sapiens
OVCAR-8 = assay: NCI-60 SRB screen, ovarian cancer; type: cell-based, human; conditions: Homo sapiens
SF539 = assay: NCI-60 SRB screen, CNS cancer; type: cell-based, human; conditions: Homo sapiens
[1] = system: MDA-MB-231 human breast cancer cells; assay: Alamar Blue cell viability (antiproliferative) assay; type: cell-based
PC-3 = assay: NCI-60 SRB screen, prostate cancer; type: cell-based, human; conditions: Homo sapiens
SF295 = assay: NCI-60 SRB screen, CNS cancer; type: cell-based, human; conditions: Homo sapiens
OVCAR-3 = assay: NCI-60 SRB screen, ovarian cancer; type: cell-based, human; conditions: Homo sapiens
MOLT-4 = assay: NCI-60 SRB screen, leukemia; type: cell-based, human; conditions: Homo sapiens
NCI-H332M = assay: NCI-60 SRB screen, non-small cell lung cancer; type: cell-based; conditions: Homo sapiens, 48 h
MDA-MB-231/ATCC = assay: NCI-60 SRB screen, breast cancer; type: cell-based, human; conditions: Homo sapiens
K-562 = assay: NCI-60 SRB screen, leukemia; type: cell-based, human; conditions: Homo sapiens, K562, 48 h
NCI-H23 = assay: NCI-60 SRB screen, non-small cell lung cancer; type: cell-based, human; conditions: Homo sapiens
RPMI-8226 = assay: NCI-60 SRB screen, leukemia; type: cell-based, human; conditions: Homo sapiens
SNB-75 = assay: NCI-60 SRB screen, CNS cancer; type: cell-based, human; conditions: Homo sapiens
MALME-3M = assay: NCI-60 SRB screen, melanoma; type: cell-based, human; conditions: Homo sapiens, 48 h
SK-MEL-28 = assay: NCI-60 SRB screen, melanoma; type: cell-based, human; conditions: Homo sapiens
SK-MEL-5 = assay: NCI-60 SRB screen, melanoma; type: cell-based, human; conditions: Homo sapiens
NCI-H460 = assay: NCI-60 SRB screen, non-small cell lung cancer; type: cell-based, human; conditions: Homo sapiens
OVCAR-4 = assay: NCI-60 SRB screen, ovarian cancer; type: cell-based, human; conditions: Homo sapiens
RXF 393 = assay: NCI-60 SRB screen, renal cancer; type: cell-based, human; conditions: Homo sapiens
SK-OV-3 = assay: NCI-60 SRB screen, ovarian cancer; type: cell-based, human; conditions: Homo sapiens
T-47D = assay: NCI-60 SRB screen, breast cancer; type: cell-based, human; conditions: Homo sapiens, T47D, 48 h
M14 = assay: NCI-60 SRB screen, melanoma; type: cell-based, human; conditions: Homo sapiens
NCI/ADR-RES = assay: NCI-60 SRB screen, ovarian cancer; type: cell-based, human; conditions: Homo sapiens, 48 h
HS 578T = assay: NCI-60 SRB screen, breast cancer; type: cell-based; conditions: Homo sapiens, 48 h
HOP-62 = assay: NCI-60 SRB screen, non-small cell lung cancer; type: cell-based, human; conditions: Homo sapiens
SK-MEL-2 = assay: NCI-60 SRB screen, melanoma; type: cell-based, human; conditions: Homo sapiens

## C=CC=CC1C(=O)N(c2cc(OC)c(OC)c(OC)c2)C1c1ccc(OC)cc1 (stereo not drawn) [11h, 3-(Buta-1,3-dienyl)-4-(4-methoxyphenyl)-1-(3,4,5-trimethoxyphenyl)azetidin-2-one]
MCF-7
  GI50: 33.5 nM
UO-31; UO-31, 48 h
  GI50: 216 nM
NCI-H552
  GI50: 15.1 nM
MDA-MB-468; MDA-MB-468, 48 h
  GI50: 23.3 nM
DU-145; DU-145, 48 h
  GI50: 27 nM
OVCAR-8; OVCAR-8, 48 h
  GI50: 37.4 nM
SF539; SF-539, 48 h
  GI50: 33.2 nM
[1]; read-out: IC50
  IC50: 31 nM
PC-3; PC-3, 48 h
  GI50: 40.4 nM
SF295; SF-295, 48 h
  GI50: 30.9 nM
OVCAR-3; OVCAR-3, 48 h
  GI50: 25.2 nM
MOLT-4; MOLT-4, 48 h
  GI50: 36.9 nM
NCI-H332M
  GI50: 62.6 nM
MDA-MB-231/ATCC; MDA-MB-231, 48 h
  GI50: 29.6 nM
MDA-MB-231/ATCC; MDA-MB-231, 48 h, read-out: Antiproliferative Activity IC50
  IC50: 31.1 nM
K-562
  GI50: 41 nM
NCI-H23; NCI-H23, 48 h
  GI50: 32.1 nM
RPMI-8226; RPMI-8226, 48 h
  GI50: 38.4 nM
SNB-75; SNB-75, 48 h
  GI50: 30.7 nM
MALME-3M; Malme-3M
  GI50: > 100000 nM
SK-MEL-28; SK-MEL-28, 48 h
  GI50: 16000 nM
SK-MEL-5; SK-MEL-5, 48 h
  GI50: 26 nM
NCI-H460; NCI-H460, 48 h
  GI50: 33.2 nM
OVCAR-4; OVCAR-4, 48 h
  GI50: 37.3 nM
RXF 393; RXF 393, 48 h
  GI50: 30.1 nM
SK-OV-3; SK-OV-3, 48 h
  GI50: 37.3 nM
T-47D
  GI50: 56200 nM
M14; M14, 48 h
  GI50: 19.4 nM
NCI/ADR-RES
  GI50: 17.3 nM
HS 578T; Hs-578T
  GI50: 24.7 nM
HOP-62; HOP-62, 48 h
  GI50: 55.8 nM
SK-MEL-2; SK-MEL-2, 48 h
  GI50: 3250 nM

## C=C(C)C1C(=O)N(c2cc(OC)c(OC)c(OC)c2)C1c1ccc(OC)c(OP(=O)(O)O)c1 (stereo not drawn) [15a, 2-Methoxy-5-(4-oxo-3-(prop-1-en-2-yl)-1-(3,4,5-trimethoxyphenyl)azetidin-2-yl)-phenyl dihydrogen phosphate]
MCF-7
  GI50: 51.3 nM
UO-31; UO-31, five dose 0.01–100 µM, 48 h, read-out: GI50
  GI50: 182 nM
NCI-H552; NCI-H552, five dose 0.01–100 µM, read-out: GI50
  GI50: 26 nM
MDA-MB-468; MDA-MB-468, five dose 0.01–100 µM, 48 h, read-out: GI50
  GI50: 131 nM
DU-145; DU-145, five dose 0.01–100 µM, 48 h, read-out: GI50
  GI50: 80.9 nM
OVCAR-8; OVCAR-8, five dose 0.01–100 µM, 48 h, read-out: GI50
  GI50: 50.6 nM
SF539; SF-539, SF539, five dose 0.01–100 µM, 48 h, read-out: GI50
  GI50: 39.8 nM
[1]; 72 h, eight concentrations 0.001-50 μM, mean ± SEM, read-out: Antiproliferative Activity IC50
  IC50: 32 ± 5 nM
PC-3; PC-3, five dose 0.01–100 µM, 48 h, read-out: GI50
  GI50: 49.4 nM
SF295; SF-295, SF295, five dose 0.01–100 µM, 48 h, read-out: GI50
  GI50: 32.4 nM
OVCAR-3; OVCAR-3, five dose 0.01–100 µM, 48 h, read-out: GI50
  GI50: 62.4 nM
MOLT-4; MOLT-4, five dose 0.01–100 µM, 48 h, read-out: GI50
  GI50: 85.2 nM
NCI-H332M; […], five dose 0.01–100 µM, read-out: GI50
  GI50: 82 nM
MDA-MB-231/ATCC; MDA-MB-231/ATCC, five dose 0.01–100 µM, 48 h, read-out: GI50
  GI50: 53.4 nM
K-562; read-out: GI50
  GI50: 45 nM
NCI-H23; NCI-H23, five dose 0.01–100 µM, 48 h, read-out: GI50
  GI50: 90.2 nM
RPMI-8226; RPMI-8226, five dose 0.01–100 µM, 48 h, read-out: GI50
  GI50: 105 nM
SNB-75; SNB-75, five dose 0.01–100 µM, 48 h, read-out: GI50
  GI50: 36.1 nM
MALME-3M; MALME-3M, five dose 0.01–100 µM, read-out: GI50
  GI50: 30100 nM
SK-MEL-28; SK-MEL-28, five dose 0.01–100 µM, 48 h, read-out: GI50
  GI50: 83.1 nM
SK-MEL-5; SK-MEL-5, five dose 0.01–100 µM, 48 h, read-out: GI50
  GI50: 40.6 nM
NCI-H460; NCI-H460, five dose 0.01–100 µM, 48 h, read-out: GI50
  GI50: 44.8 nM
OVCAR-4; OVCAR-4, five dose 0.01–100 µM, 48 h, read-out: GI50
  GI50: 73.9 nM
RXF 393; RXF 393, five dose 0.01–100 µM, 48 h, read-out: GI50
  GI50: 123 nM
SK-OV-3; SK-OV-3, five dose 0.01–100 µM, 48 h, read-out: GI50
  GI50: 79.1 nM
T-47D; T-47D, five dose 0.01–100 µM, read-out: GI50
  GI50: > 100000 nM
M14; M14, five dose 0.01–100 µM, 48 h, read-out: GI50
  GI50: 123 nM
NCI/ADR-RES; five dose 0.01–100 µM, read-out: GI50
  GI50: 36.5 nM
HS 578T; HS 578T, five dose 0.01–100 µM, read-out: GI50
  GI50: 63.1 nM
HOP-62; HOP-62, five dose 0.01–100 µM, 48 h, read-out: GI50
  GI50: 105 nM
SK-MEL-2; SK-MEL-2, five dose 0.01–100 µM, 48 h, read-out: GI50
  GI50: 75 nM
